From patent US20100298141A1, “SUBSTITUTED PYRIDINE N-OXIDE HERBICIDES” (E. I. DU PONT DE NEMOURS AND COMPANY, priority 2007, published 2010)

Columns and labels:
[1] = test system: velvetleaf; assay: Test A pre-/postemergence greenhouse test; type: in vivo, Abutilon theophrasti; conditions: for Velvetleaf plant response rating: 0 to 100 scale; for Plant response rating, Velvetleaf: 0 to 100 scale where 0 is no effect and 100 is complete control
Description: (§1) Seeds of barnyardgrass (Echinochloa crus-galli), crabgrass (Digitaria sanguinalis), giant foxtail (Setaria faberi), morningglory (Ipomoea spp.), redroot pigweed (Amaranthus retroflexus), velvetleaf (Abutilon theophrasti), wheat (Triticum aestivum), and corn (Zea mays) were planted into a blend of loam soil and sand and treated preemergence with a directed soil spray using test compounds formulated in a non-phytotoxic solvent mixture which included a surfactant. At the same time these species were also treated with postemergence applications of test compounds formulated in the same manner. Plants ranged in height from two to ten cm and were in the one- to two-leaf stage for the postemergence treatment. Treated plants and untreated controls were maintained in a greenhouse for approximately ten days, after which time all treated plants were compared to untreated controls and visually evaluated for injury. […] A dash (-) response means no test results.

[2] = test system: barnyardgrass; assay: Test A pre-/postemergence greenhouse test; type: in vivo, Echinochloa crus-galli; conditions: for Barnyardgrass plant response rating: 0 to 100 scale; for Plant response rating, Barnyardgrass: 0 to 100 scale where 0 is no effect and 100 is complete control
Description: as §1

[3] = test system: umbrella sedge; assay: Test C flooded paddy test; type: in vivo, Cyperus difformis; conditions: Flood
Description: (§2) At time of treatment, test pots were flooded to 3 cm above the soil surface, treated by application of test compounds directly to the paddy water, and then maintained at that water depth for the duration of the test. Treated plants and controls were maintained in a greenhouse for 13 to 15 days, after which time all species were compared to controls and visually evaluated. […] A dash (-) response means no test result.

[4] = test system: morningglory; assay: Test A pre-/postemergence greenhouse test; type: in vivo, Ipomoea spp.; conditions: for Morningglory plant response rating: 0 to 100 scale; for Plant response rating, Morningglory: 0 to 100 scale where 0 is no effect and 100 is complete control
Description: as §1

[5] = test system: wheat; assay: Test A pre-/postemergence greenhouse test; type: in vivo, Triticum aestivum; conditions: for Wheat plant response rating: 0 to 100 scale; for Plant response rating, Wheat: 0 to 100 scale where 0 is no effect and 100 is complete control
Description: as §1

[6] = test system: giant foxtail; assay: Test A pre-/postemergence greenhouse test; type: in vivo, Setaria faberi; conditions: for Foxtail, Giant plant response rating: 0 to 100 scale; for Plant response rating, Foxtail, Giant: 0 to 100 scale where 0 is no effect and 100 is complete control
Description: as §1

[7] = test system: redroot pigweed; assay: Test A pre-/postemergence greenhouse test; type: in vivo, Amaranthus retroflexus; conditions: for Pigweed plant response rating: 0 to 100 scale; for Plant response rating, Pigweed: 0 to 100 scale where 0 is no effect and 100 is complete control
Description: as §1

[8] = test system: rice; assay: Test C flooded paddy test; type: in vivo, Oryza sativa; conditions: Flood
Description: as §2

[9] = test system: crabgrass; assay: Test A pre-/postemergence greenhouse test; type: in vivo, Digitaria sanguinalis; conditions: for Crabgrass, Large plant response rating: 0 to 100 scale; for Plant response rating, Crabgrass, Large: 0 to 100 scale where 0 is no effect and 100 is complete control
Description: as §1

[10] = test system: duck salad; assay: Test C flooded paddy test; type: in vivo, Heteranthera limosa; conditions: Flood
Description: as §2

[11] = test system: barnyardgrass; assay: Test C flooded paddy test; type: in vivo, Echinochloa crus-galli; conditions: Flood
Description: as §2

[12] = test system: corn; assay: Test A pre-/postemergence greenhouse test; type: in vivo, Zea mays; conditions: for Corn plant response rating: 0 to 100 scale; for Plant response rating, Corn: 0 to 100 scale where 0 is no effect and 100 is complete control
Description: as §1

[13] = Postemergence, 125 g ai/ha, 0 is no effect, 100 is complete control
[14] = Postemergence, 500 g ai/ha, 0 is no effect, 100 is complete control
[15] = Preemergence, 125 g ai/ha, 0 no effect, 100 complete control
[16] = 31 g ai/ha, scale 0 to 100 (0 no effect, 100 complete control)
[17] = 62 g ai/ha, scale 0 to 100, 0 no effect, 100 complete control, 13 to 15 days
[18] = 125 g ai/ha, scale 0 to 100, 0 no effect, 100 complete control, 13 to 15 days
[19] = 250 g ai/ha, scale 0 to 100, 0 no effect, 100 complete control, 13 to 15 days
[20] = 250 g ai/ha, scale 0 to 100 (0 no effect, 100 complete control)
[21] = 62 g ai/ha, scale 0 to 100 (0 no effect, 100 complete control)

CC(c1c(C(F)(F)F)nn(C)c1Cl)[S+]([O-])c1cccc[n+]1[O-] (mixture of isomers) [Compound 27]
Velvetleaf plant response rating [1, 13]: 0 | Velvetleaf plant response rating [1, 14]: 0 | Velvetleaf plant response rating [1, 15]: 20 | Plant response rating, Velvetleaf ([1]; Preemergence, 500 g ai/ha): 20 | Barnyardgrass plant response rating [2, 13]: 20 | Barnyardgrass plant response rating [2, 14]: 50 | Barnyardgrass plant response rating [2, 15]: 0 | Plant response rating, Barnyardgrass ([2]; Preemergence, 500 g ai/ha): 70 | Plant response rating, Sedge, Umbrella [3, 16]: 0 | Plant response rating, Sedge, Umbrella [3, 17]: 0 | Plant response rating, Sedge, Umbrella [3, 18]: 0 | Plant response rating, Sedge, Umbrella [3, 19]: 0 | Morningglory plant response rating [4, 13]: 0 | Morningglory plant response rating [4, 14]: 20 | Morningglory plant response rating [4, 15]: 0 | Plant response rating, Morningglory ([4]; Preemergence, 500 g ai/ha): 0 | Wheat plant response rating [5, 13]: 0 | Wheat plant response rating [5, 14]: 0 | Wheat plant response rating [5, 15]: 20 | Plant response rating, Wheat ([5]; Preemergence, 500 g ai/ha): 30 | Foxtail, Giant plant response rating [6, 13]: 0 | Foxtail, Giant plant response rating [6, 14]: 60 | Foxtail, Giant plant response rating [6, 15]: 30 | Plant response rating, Foxtail, Giant ([6]; Preemergence, 500 g ai/ha): 80 | Pigweed plant response rating [7, 13]: 0 | Pigweed plant response rating [7, 14]: 10 | Pigweed plant response rating [7, 15]: 0 | Plant response rating, Pigweed ([7]; Preemergence, 500 g ai/ha): 0 | Plant response rating, Rice [8, 16]: 0 | Plant response rating, Rice [8, 17]: 0 | Plant response rating, Rice [8, 18]: 0 | Plant response rating, Rice [8, 20]: 0 | Crabgrass, Large plant response rating [9, 13]: 0 | Crabgrass, Large plant response rating [9, 14]: 40 | Crabgrass, Large plant response rating [9, 15]: 40 | Plant response rating, Crabgrass, Large ([9]; Preemergence, 500 g ai/ha): 80 | Plant response rating, Ducksalad [10, 16]: 0 | Plant response rating, Ducksalad [10, 17]: 0 | Plant response rating, Ducksalad [10, 18]: 0 | Plant response rating, Ducksalad [10, 20]: 0 | Plant response rating, Barnyardgrass [11, 16]: 0 | Plant response rating, Barnyardgrass [11, 17]: 0 | Plant response rating, Barnyardgrass [11, 18]: 0 | Plant response rating, Barnyardgrass [11, 20]: 0 | Corn plant response rating [12, 13]: 0 | Corn plant response rating [12, 14]: 20 | Corn plant response rating [12, 15]: 0 | Plant response rating, Corn ([12]; Preemergence, 500 g ai/ha): 0

Cc1cc(S(=O)(=O)Cc2c(C(F)(F)F)nn(C)c2OCC(F)(F)F)[n+]([O-])cc1Cl [Compound 71]
Plant response rating, Velvetleaf ([1]; Postemergence, 125 g ai/ha): 20 | Velvetleaf plant response rating [1, 14]: 50 | Velvetleaf plant response rating [1, 15]: 0 | Plant response rating, Velvetleaf ([1]; Preemergence, 500 g ai/ha): 30 | Plant response rating, Barnyardgrass ([2]; Postemergence, 125 g ai/ha): 40 | Barnyardgrass plant response rating [2, 14]: 80 | Barnyardgrass plant response rating [2, 15]: 40 | Plant response rating, Barnyardgrass ([2]; Preemergence, 500 g ai/ha): 90 | Plant response rating, Sedge, Umbrella [3, 21]: 0 | Plant response rating, Sedge, Umbrella [3, 19]: 30 | Plant response rating, Morningglory ([4]; Postemergence, 125 g ai/ha): 0 | Morningglory plant response rating [4, 14]: 30 | Morningglory plant response rating [4, 15]: 0 | Plant response rating, Morningglory ([4]; Preemergence, 500 g ai/ha): 10 | Plant response rating, Wheat ([5]; Postemergence, 125 g ai/ha): 30 | Wheat plant response rating [5, 14]: 50 | Wheat plant response rating [5, 15]: 0 | Plant response rating, Wheat ([5]; Preemergence, 500 g ai/ha): 40 | Plant response rating, Foxtail, Giant ([6]; Postemergence, 125 g ai/ha): 40 | Foxtail, Giant plant response rating [6, 14]: 80 | Foxtail, Giant plant response rating [6, 15]: 90 | Plant response rating, Foxtail, Giant ([6]; Preemergence, 500 g ai/ha): 100 | Plant response rating, Pigweed ([7]; Postemergence, 125 g ai/ha): 50 | Pigweed plant response rating [7, 14]: 70 | Pigweed plant response rating [7, 15]: 70 | Plant response rating, Pigweed ([7]; Preemergence, 500 g ai/ha): 100 | Plant response rating, Rice [8, 21]: 30 | Plant response rating, Rice [8, 19]: 60 | Plant response rating, Crabgrass, Large ([9]; Postemergence, 125 g ai/ha): 30 | Crabgrass, Large plant response rating [9, 14]: 70 | Crabgrass, Large plant response rating [9, 15]: 50 | Plant response rating, Crabgrass, Large ([9]; Preemergence, 500 g ai/ha): 100 | Plant response rating, Ducksalad [10, 21]: 0 | Plant response rating, Ducksalad [10, 19]: 70 | Plant response rating, Barnyardgrass [11, 21]: 20 | Plant response rating, Barnyardgrass [11, 19]: 20 | Plant response rating, Corn ([12]; Postemergence, 125 g ai/ha): 0 | Corn plant response rating [12, 14]: 30 | Corn plant response rating [12, 15]: 20 | Plant response rating, Corn ([12]; Preemergence, 500 g ai/ha): 20
